Data: US20130296358A1, “3-SPIROCYCLIC PIPERIDINE DERIVATIVES AS GHRELIN RECEPTOR AGONISTS” (priority 2012, published 2013)

Legend:
[1] = molecular target: T1, human recombinant ghrelin receptor (GHS-R1a) (Homo sapiens, UniProt Q92847); assay: cAMP assay (HTRF), CHO-hGHS-R1a cells; assay type: cell-based; details: relative to the ghrelin response (defined as 100%)
T1 construct: host or cells: CHO-K1
Method: (§1) Chinese hamster ovary (CHO-K1) cells expressing human recombinant ghrelin receptor (GHS-R1a) were purchased from Euroscreen (ES-410-C) and propagated in UltraCHO medium containing glutamine and supplemented with 1% heat inactivated foetal calf serum (FCS), 100 U/ml penicillin, 100 mg/l streptomycin and 0.8 g/l geneticin. Cells were sub-cultured twice a week with a 1:10 dilution. For passaging, cells were washed with 1× DPBS without calcium and magnesium, trypsinised for 10 min with 0.05% Trypsin/EDTA and resuspended in cell culture medium.
The Homogeneous Time-Resolved Fluorescence (HTRF) cAMP dynamic 2 kit (Cisbio International, France) was used as follows. CHO-hGHS—R1a or CHO-rGHS—R1a cells were seeded in a volume of 25 μl culture media at 10,000 cells/well (400,000 cells/ml) in Greiner white 384-well high volume plates and incubated overnight (18-24 h) at 37° C./5% CO2. Then, media was removed and 6 μl assay buffer [HBSS, 10 mM Hepes, 0.2% (w/v) BSA, 1.7 mM IBMX, (pH7.4)] were added to the wells. To generate a dose response up to 30 μM, 10 mM compound stocks in 100% (v/v) DMSO were firstly diluted in 50% (v/v) DMSO followed by a further dilution into assay buffer. Then, 4 μl of 2.5× compound (dose response as 9 point log serial dilution in assay buffer from 30 μM as maximum concentration) were added to each well achieving a final DMSO assay concentration of 0.8% (v/v). 0.1 μM forskolin was added as positive control. After 30 min (rGHS—R1a cell line) or 60 min (hGHS—R1a cell line) incubation at 37° C./5% CO2, 5 μl of cAMP-d2 and 5 μl of anti-cAMP antibody-cryptate, (both made in lysis buffer), were added to the plate followed by 1 h incubation at RT. During this time, cAMP produced by the cells competed with cAMP-d2 for the anti-cAMP antibody-cryptate molecule. Then, the plate was read on the Pherastar instrument (BMG, Germany) at two different emission wavelengths ([…]). Increasing levels of endogenous cAMP produced by cells could be followed by a decrease of FRET fluorescent signal and viceversa. Values represented by a change in arbitrary fluorescence ratios (665/620) were converted into cAMP concentrations by using a standard curve, the reagents for which were supplied with the kit. EC50 values of agonists were calculated using the nonlinear logistic function of the Prism 5 software (GraphPad, USA). Emax were expressed as relative values of the ghrelin response, which was defined as 100%.

[2] = molecular target: T1, human recombinant ghrelin receptor (GHS-R1a); assay: Calcium assay, CHO-K1 cells expressing hGHS-R1a (Fluo-4); assay type: cell-based
Method: as §1
Cells were diluted to achieve 1×10^6 cells/ml, seeded in 384-well black clear bottom CellBind plates at 25000 cells/well (25u1) and incubated overnight at 37° C./5% CO2 Cells were expected to be 85-90% confluent on the day of assay (checked under the microscope) to ensure a high quality assay. Media was manually removed and 40 μl of loading solution containing probenecid and Fluo-4 no wash dye (a calcium indicator, Invitrogen F36206) were added to each well. After 30 min at 37° C. followed by another 30 min at RT, cpds were added to the wells. To generate a dose response up to 30 μM, 10 mM compound stocks in 100% (v/v) DMSO were firstly diluted in 50% (v/v) DMSO. Then, serial dilutions aimed at a full logarithmic dose responses (8 point) were performed in assay buffer [1×HBSS, 20 mM Hepes, 0.1% (w/v) BSA] to give 2.5% (v/v) DMSO and 5× final compound concentrations. The final assay DMSO concentration was 0.5% (v/v). After loading the cells with Fluo-4 containing solution, plates were read on a CeIlLux instrument (Perkin Elmer). A protocol set up to add 10 μl of 5× compound and to read the plate for 60sec after adding the compound at 17th sec was used. Fluorescence excitation took place at 494 nm and emission at 516 nm. EC50 values of agonists were calculated by fitting the percent stimulation over background [(Max-Min)/Min] using the nonlinear logistic function of the Prism 5 software (GraphPad, USA).

rat fundus = assay: Rat fundus contractility assay (EFS-induced contraction of muscle strips); details: for EC50: increase of EFS-induced contraction, mean of preparations from at least 3 animals; for Emax/% / Emax: relative to the response to ghrelin (100 nM), defined as 100%
Method: Male Sprague Dawley rats (180-250 g) were culled by cervical dislocation and the fundus was removed. Each fundus was placed on a Krebs Henseleit (KH) buffer soaked dissection dish and cut along the long curvature to form a flattened sheet that was pinned in each corner. Four adjacent longitudinal strips (10×3 mm) were cut and the mucosa removed by sharp dissection. Each muscle strip was mounted in a 10 ml organ bath containing oxygenated KH at 37° C. Each strip was connected to an isometric force transducer, calibrated initially using a 5 g weight. The signal (g tension) was amplified and responses recorded by a Powerlab data capture system, connected to a computer running Labchart software (version 5.0). Tissues were placed under 1 g tension for an equilibration period of 30 min or until the baseline tension had stabilised. Carbachol (CCh, 100 nM) was then administered to establish the maximum contractile response of each preparation. Tissues were washed thoroughly and left for 30 min to re-equilibrate. Next, the muscle strips underwent electrical field stimulation (EFS). Maximal EFS pulse trains of 12V, 5 Hz, 0.1 msec pulse width, for 2 sec every 60 sec were applied until consistent electrically-stimulated phasic contractions were recorded. The voltage was then reduced in 1V increments until a consistent submaximal (EC50-75) EFS response was observed. Ghrelin (100 nM) was administered and left until a maximum response was obtained. Tissues were then washed thoroughly and left for 30 min. Once the EFS-induced contraction had re-stabilised, cumulative additions (10 nM-10 μM) of each test compound were administered. Individual responses were calculated by determining the peak of the EFS-induced contraction minus the baseline. […] The mean EC50 value for compounds was generated from data obtained on stomach preparations from at least 3 different animals.

[3] = CHO-K1, relative to the Emax induced by MK-0677 (defined as 100%), read-out: hGHS-R1a Ca assay Emax/%

T1 sequence (Q92847 whole entry): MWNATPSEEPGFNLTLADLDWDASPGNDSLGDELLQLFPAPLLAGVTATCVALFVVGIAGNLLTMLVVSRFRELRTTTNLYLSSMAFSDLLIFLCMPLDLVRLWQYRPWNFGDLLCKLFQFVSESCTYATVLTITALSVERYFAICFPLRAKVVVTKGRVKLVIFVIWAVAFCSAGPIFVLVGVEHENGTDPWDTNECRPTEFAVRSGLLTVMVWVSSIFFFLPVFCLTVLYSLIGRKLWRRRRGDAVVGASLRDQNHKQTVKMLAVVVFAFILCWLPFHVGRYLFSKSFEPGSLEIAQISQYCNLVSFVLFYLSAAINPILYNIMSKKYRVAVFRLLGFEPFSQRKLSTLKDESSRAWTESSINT

Emax [1] | Emax [2, 3] | SMILES | further results
145% | 104% | CN1N=C(c2ccccc2)C2(CCCN(C(=O)[C@@H](COCc3ccccc3)NC(=O)C(C)(C)N)C2)C1=O (mixture of isomers) [Example 1.47, 2-Amino-N-[(R)-1-benzyloxymetnyl-2-(3-methyl-4-oxo-1-phenyl-2,3,7-triaza-spiro[4.5]dec-1-en-7-yl)-2-oxo-ethyl]-2-methyl-propionamide] | 
 | 100% | CC(C)(N)C(=O)N[C@H](COCc1ccccc1)C(=O)N1CCCC2(C1)C(=O)NCC2c1ccccc1 (single isomer, unassigned) [Example 1.4] | hGHS-R1a cAMP assay Emax/% [1]: 127%
 |  | CC(C)N1CC(c2ccccc2)C2(CCCN(C(=O)[C@@H](COCc3ccccc3)NC(=O)C(C)(C)N)C2)C1=O (single isomer, unassigned) [Example 1.6] | EC50 (rat fundus): 373 nM; Emax/% (rat fundus): 70%
149% | 102% | CN1CC(c2ccc(Cl)cc2)C2(CCCN(C(=O)[C@@H](COCc3ccccc3)NC(=O)C(C)(C)N)C2)C1=O (single isomer, unassigned) [Example 1.8] | 
 |  | CC(C)N1CC(c2ccc(F)cc2)C2(CCCN(C(=O)[C@@H](COCc3ccccc3)NC(=O)C(C)(C)N)C2)C1=O (single isomer, unassigned) [Example 1.18] | Emax (rat fundus; Rattus norvegicus): 117%; EC50 (rat fundus): 148 nM
 |  | CC(C)N1CC(c2ccc(F)cc2)C2(CCCN(C(=O)[C@@H](COCc3ccccc3)NC(=O)C(C)(C)N)C2)C1=O (single isomer, unassigned) [Example 1.19] | EC50 (rat fundus): 23 nM; Emax/% (rat fundus): 124%
223% | 103% | CCN1CC(c2ccccc2)C2(CCCN(C(=O)[C@@H](COCc3ccccc3)NC(=O)C(C)(C)N)C2)C1=O (single isomer, unassigned) [Example 1.25] | 
194% | 106% | CN1CC(c2ccccc2)C2(CCCN(C(=O)[C@@H](CCc3ccccc3)NC(=O)C(C)(C)N)C2)C1=O (single isomer, unassigned) [Example 1.28] | 
 |  | CN1CC(c2ccccc2)C2(CCCN(C(=O)[C@@H](CCCc3ccccc3)NC(=O)C(C)(C)N)C2)C1=O (single isomer, unassigned) [Example 1.33] | EC50 (rat fundus): 84 nM; Emax/% (rat fundus): 131%
 |  | CC(C)(N)C(=O)N[C@H](COCc1ccccc1)C(=O)N1CCCC2(C1)C(=O)NCC2c1ccccc1 (single isomer, unassigned) [Example 1.49] | hGHS-R1a cAMP assay Emax/% [1]: 88%
141% | 98% | Cc1ccccc1C1CN(C)C(=O)C12CCCN(C(=O)[C@@H](COCc1ccccc1)NC(=O)C(C)(C)N)C2 (single isomer, unassigned) [Example 1.51] | 
212% | 89% | Cc1ccc(C2CN(C)C(=O)C23CCCN(C(=O)[C@@H](COCc2ccccc2)NC(=O)C(C)(C)N)C3)cc1 (single isomer, unassigned) [Example 1.53] | 
191% | 94% | Cc1ccc(COC[C@@H](NC(=O)C(C)(C)N)C(=O)N2CCCC3(C2)C(=O)N(C)CC3c2ccccc2)cc1 (single isomer, unassigned) [Example 1.55] | 
173% | 84% | CN1CC(c2ccc(F)cc2)C2(CCCN(C(=O)[C@@H](COCc3ccc(Cl)cc3)NC(=O)C(C)(C)N)C2)C1=O (single isomer, unassigned) [Example 1.57] | 
171% | 98% | CN1CC(c2ccccc2)C2(CCCN(C(=O)[C@@H](COCC3CCCCC3)NC(=O)C(C)(C)N)C2)C1=O (single isomer, unassigned) [Example 1.60] | 
189% | 73% | CN1CN(c2ccccc2)C2(CCCN(C(=O)[C@@H](COCc3ccccc3)NC(=O)C(C)(C)N)C2)C1=O (single isomer, unassigned) [Example 1.61] | 
 |  | CN1C(=O)C2(CCCN(C(=O)[C@@H](COCc3ccccc3)NC(=O)C(C)(C)N)C2)C1c1ccccc1 (single isomer, unassigned) [Example 2.0(iii)] | EC50 (rat fundus): 70 nM; Emax/% (rat fundus): 70%
 |  | CC(C)N1CC(c2ccccc2)C2(CCCN(C(=O)[C@@H](Cc3c[nH]c4ccccc34)NC(=O)C(C)(C)N)C2)C1=O (single isomer, unassigned) [Example 3.0(ii)] | EC50 (rat fundus; Rattus norvegicus): 15 nM; Emax (rat fundus; Rattus norvegicus): 85%
268% | 103% | COc1ccc(COC[C@@H](NC(=O)C(C)(C)N)C(=O)N2CCCC3(C2)C(=O)N(C)CC3c2ccccc2)cc1 (single isomer, unassigned) [Example 6.0(ii), 2-Amino-N—[(R)-1-(4-methoxy-benzyloxymethyl)-2-((4S,5R)-2-methyl-1-oxo-4-phenyl-2,7-diaza-spiro[4.5]dec-7-yl)-2-oxo-ethyl]-2-methyl-propionamide or 2-Amino-N—[(R)-1-(4-methoxy-benzyloxymethyl)-2-(4R,5S)-2-methyl-1-oxo-4-phenyl-2,7-diaza-spiro[4.5]dec-7-yl)-2-oxo-ethyl]-2-methyl-propionamide] | 
153% | 83% | CN1CC(c2ccccc2)C2(CCCN(C(=O)[C@@H](COCc3ccc(F)cc3)NC(=O)C(C)(C)N)C2)C1=O (single isomer, unassigned) [Example 7.0, 2-Amino-N—[(R)-1-(4-fluoro-benzyloxymethyl)-2-(4S,5R)-2-methyl-1-oxo-4-phenyl-2,7-diaza-spiro[4.5]clec-7-yl)-2-oxo-ethyl]-2-methyl-propionamide or 2-Amino-N—[(R)-1-(4-fluoro-benzyloxymethyl)-2-(4R,5S)-2-methyl-1-oxo-4-phenyl-2,7-diaza-spiro[4.5]clec-7-yl)-2-oxo-ethyl]-2-methyl-propionamide] | 
 |  | CC(C)(N)C(=O)N[C@H](COCc1ccccc1)C(=O)N1CCC2(CC1)CN(S(C)(=O)=O)c1ccccc12 [MK-0677, reference compound] | Emax ([2]; compared with ghrelin): same Emax as ghrelin
